Experimental data reported in patent publication US20250136997A1, “COMPOSITIONS FOR SEQUESTERING ISOAMYL AMINE AND METHODS OF USE THEREFOR” (University of Louisville Research Foundation, Inc., priority 2023, published 2025).

Legend:
microglial cells = assay: Western blot of cleaved caspase-3 and cleaved PARP in ex vivo cultured microglial cells; type: cell-based, mouse
Protocol: Isolation of microglia, neuron, astrocytes, and oligodendrocytes from the brain. Mice were anaesthetized with a mixture of ketamine (16%) and xylazine (3%) by intraperitoneal injection and then sacrificed under basal conditions by transcardial perfusion with perfusion buffer (Ca^2+/Mg^2+ free HBSS containing 0.5 mM EGTA, 10 mM HEPES and 4.2 mM NaHCO3; pH 7.2). The perfused brain was removed and gently mechanically disaggregated with tweezers in dissociation buffer (HBSS containing 10 mM HEPES and 4.2 mM NaHCO3 supplemented with Type I collagenase (0.05%), Dispase II (25 mg/ml), DNase I (2.5 mg/ml), trypsin inhibitor ([…]); pH 7.5) followed by incubation at 37° C. for 1 hour. The tissue homogenate was centrifuged at 1,350×g for 5 minutes at 4° C. For the isolation of microglia, the digestion enzymes in the tissue homogenate were inactivated by addition of PBS/EDTA containing 5% fetal bovine serum (FBS) and the digested brain bits were triturated gently, passed over a 100 µm filter (Fisher Scientific) and centrifuged. […] The pellet of cells was rinsed in PBS. Any contaminating red blood cells (RBC) were lysed using RBC lysis buffer (Sigma) according to the manufacturer's instructions, rinsed twice with PBS and passed through a 40 µm filter (Fisher Scientific). Cells were then stained for CD11b and CD45 for flow cytometry analysis. The astrocytes were isolated from mouse cortices (n=10). The tissue homogenate was centrifuged at 800×g for 10 minutes at 4° C. following digestion with type II collagenase (1 mg/ml) and type I DNase (10 U/ml) in DMEM for 10 minutes. The cells pelleted by centrifugation were plated in a 100 mm culture dish coated with poly-L-ornithine (Sigma). For the isolation of oligodendrocytes, the glial cells above were cultured in specific media containing T3 and T4 (0.5 mM) as well as platelet-derived growth factor (PDGF, 10 ng/ml) to promote the growth of the different cell types. Isolated glial cells were labelled with the following antibodies against surface markers: CD11b (Biolegend, Cat #101206), CD45 (Biolegend, Cat #147710), GFAP (Biolegend, Cat #837508) and MOG (Biorbyt, Cat #orb412341-FITC). Cells positive for CD11b and CD45Med were identified as microglia. Cells positive for GFAP and negative for CD45 and CD11b were identified as astrocytes. Cells sorted with MOG+CD11b− were identified as oligodendrocytes. Neurons were isolated from mouse brain using the Pierce Primary Neuron Isolation Kit (Thermo Scientific, Cat #88280). Briefly, the tissue homogenate from freshly dissected cortexes was suspended in an equal volume of ice cold HBSS (Sigma) and replaced with Neuronal Isolation Enzyme (with papain) in a 37° C. incubator for 30 minutes. After washing with HBSS, the tissue was cultured in a poly-D-lysine coated plate with Neuronal Culture Medium.
Western blotting. Cells were treated as indicated in individual Figure legends and whole cell extracts (WCE) were prepared in the radioimmunoprecipitation assay (RIPA) buffer (Sigma) with addition of protease and phosphatase inhibitors (Roche). Proteins were separated by 10% SDS-PAGE and transferred to polyvinylidene difluoride (PVDF) membranes (Bio-Rad Laboratories, Inc., Hercules, CA). Dual color precision protein MW markers (BioRad) were separated in parallel. Antibodies were purchased as follows: cleaved-caspase-3 (ab214430), cleaved PARP (ab203467) and GAPDH (ab9657, Abcam) from Abcam; S100A8 (47310) and S100a9 (72590) from Cell Signaling; and Ltf (GTX81085) from GeneTex. The secondary antibodies conjugated to Fluors Alex-488 (A32723) or Alex-594 (A11012) were purchased from Invitrogen (Eugene, OR). The bands were visualized on the Odyssey Imager (LiCor Inc, Lincoln, NE).

[1] = Single-strand gel shift (SSGS) assay; type: binding; settings: oligos (2 μM) incubated with IAA (10 μM), 15% PAGE
Protocol: Single-strand gel shift (SSGS) assay. To identify the metabolite binding site of S100A8, we synthesized a series of oligonucleotides (oligos) (Eurofins Genomics LLC, KY) specific to the response putative IAA binding site at the promoter region of S100A8. The oligos ([…]) were incubated with […] of IAA at 37° C. for 30 minutes following electrophoresis on a 15% native PAGE without SDS in 0.5×TBE buffer. The oligos were stained with ethidium bromide ([…]) and visualized under ultraviolet (UV) light.
Given induction of bacterial metabolite IAA causes the degeneration of microglia by elevation of S100A8 at both the transcription and protein level, we hypothesized that IAA might directly target the promoter of S100A8 and regulate the expression of S100A8. Studying the interaction of metabolites, particularly small molecules, with nucleic acid is challenging due to a lack of appropriate tags for the metabolites. Because of this challenge, we developed a strategy raising the possibility to investigate the interaction of small molecules and nucleic acid.
To test our hypothesis, we first synthesized short single-DNA strains (around 60 mer length each) whose sequences spanned the promoter of S100A8 (FIG. 13A and Table 5). The site and sequence of the promoter and transcription start site (TSS) were determined according to the entire mRNA (Accession #NC_000069.7 (90,576,378 . . . 90,577,341)) and genomic sequence (Accession #L76381) from the NCBI nucleic acid database (FIG. 13A). These DNA oligos (2 μM) were incubated with IAA (10 μM) following native PAGE analysis (FIG. 4A). […] To define the accurate binding site of IAA, we synthesized 10 mer length DNA oligos covering the sequence of S100p1 (Table 5). Unfortunately, the 10 mer length oligo lost the conformational mobility shift in PAGE (FIG. 13C). We then tested the mobility shift with 20 mer oligos. […]

[2] = added to ex vivo cultured microglial cells from young mice

| Compound | effect on the microglia (cleaved caspase-3) (microglial cells; S100A8 deficient microglia cells) | cleaved caspase-3 (microglial cells; [2]) | cleaved poly(-ADP-ribose) polymerase (PARP) (microglial cells; [2]) | mobility shift on native PAGE after incubation with IAA [1] |
| --- | --- | --- | --- | --- |
| CC(C)CCN [IAA, isoamylamine] | abolished | increasing | increasing |  |
| S100p1-G: CTGTGGGCAG CTGGCCAAGC (SEQ ID NO: 8), S100A8 promoter −57 . . . −38 (DNA CTGTGGGCAGCTGGCCAAGC; chemistry not given here) |  |  |  | displayed a shift |
